Experimental data from patent US12704493B2 (priority 2020, dated 2026).

Experiments:
[1] = system: electroactive microorganisms
[2] = system: electroactive microorganisms of the biosensor anode

Row | Compound | change of open circuit voltage with each spike [1] | decrease in the estimated open circuit voltage [2]
1 | O=S(=O)([O-])[O-].[Cu+2] [Cu, CuSO4] | reduced | 
2 | C=O [formaldehyde] |  | ~90%
